“Also recorded” adds a separate entry of the source. Blank lines part the entries; values can stand above or below the molecule they belong to.
Columns and labels:
cancer cell lines = test: MTT cytotoxicity, cancer cell lines overall; assay type: cell-based, human; details: for cytotoxic properties toward cancer cell lines: K562, MOLT-4, HeLa, MTT, 48 h
Experimental: (§1) Fourteen new benzofuran derivatives were tested for their cytotoxic properties in K562, MOLT-4 (leukemia, suspension cells), HeLa (cervix carcinoma, adherent cells), and normal endothelial cells (HUVEC). First, we measured the viability of cells after 48 h incubation with the given compound at the concentration of 100 μM. Next, for compounds that reduced cancer cells survival for more than 50%, we determined IC50 values. Cells that were exposed to 1% DMSO (a vehicle) served as the control with 100% survival. Cells treated with 1 µM staurosporine served as the internal control of the cytotoxicity experiments.
(§2) Human umbilical vein endothelial cells (Life Technologies, Waltham, MA, USA) were cultured (according to the manufacturer instructions) in Medium 200 supplemented with Low Serum Growth Supplement. 1 × 10^4 HUVEC cells were seeded on each well on a 96-well plate (Nunc). The HeLa (human cervix carcinoma) K562 and MOLT-4 (leukemia) cells were cultured in RPMI 1640 medium supplemented with antibiotics and 10% fetal calf serum (HeLa, K562) in a 5% CO2-95% air atmosphere. 7 × 10^3 HeLa, K562, or MOLT-4 cells were seeded on each well on 96-well plate (Nunc). 24 h later cells were treated with the test compounds and then incubated for an additional 48 hours. Stock solutions of test compounds were freshly prepared in DMSO (dimethylsulfoxide). The final concentrations of compounds that were tested in the cell cultures were: 2 × 10^−1, 1 ×10^−1, 5 × 10^−2, 1 × 10^−2, 1 × 10^−3 and 1 × 10^−4 mM. The concentration of DMSO in the cell culture medium was 1%.
(§3) The values of IC50 (the concentration of test compound that is required to reduce the cell survival fraction to 50% of the control) were calculated from dose-response curves and used as a measure of cellular sensitivity to a given treatment.
(§4) The MTT [3-(4,5-dimethylthiazol-2-yl)-2,5-diphenyltetrazolium bromide; Sigma, St. Louis, MO, USA] assay determined the cytotoxicity of all the compounds, as described previously. Briefly, after 24 h or 48 h of incubation with the drug, the cells were treated with the MTT reagent, and incubation was continued for 2 h. MTT-formazan crystals were dissolved in 20% SDS and 50% DMF at pH 4.7 and absorbance was read at 570 and 650 nm on an ELISA-PLATE READER (FLUOstar Omega, BMG LABTECH GmbH, Ortenberg, Germany). As a control (100% viability), cells that were grown in the presence of medium vehicle only with 1% DMSO were used.

[1] = system: HeLa (human cervix carcinoma) cells; test: MTT cytotoxicity assay, HeLa; assay type: cell-based; details: for IC50: Homo sapiens, HeLa, 48 h incubation with cells, MTT; for reduction of viability of HeLa cells: initial screening, 100 μM, 48 h
Experimental: as §1, §2, §3, §4

K562 (leukemia) cells = test: MTT cytotoxicity assay, K562; assay type: cell-based, human; details: for IC50: 48 h incubation with cells, MTT; for reduction of viability of K562 cells: initial screening, 100 μM, 48 h
Experimental: as §1, §2, §3, §4

MOLT-4 (leukemia) cells = test: MTT cytotoxicity assay, MOLT-4; assay type: cell-based, human; details: for IC50: Homo sapiens, MOLT-4, 48 h incubation with cells, MTT; for reduction of viability of MOLT-4 cells: initial screening, 100 μM, 48 h
Experimental: as §1, §2, §3, §4

[2] = system: Human umbilical vein endothelial cells (HUVEC); test: MTT cytotoxicity assay, HUVEC; assay type: cell-based; details: for IC50: Homo sapiens, HUVEC, 48 h incubation with cells, MTT; for cytotoxicity against human normal endothelial cells: initial screening, 100 μM, 48 h
Experimental: as §1, §2, §3, §4

[3] = system: caspase 3/7 in K562 cells; test: Apo-ONE Homogeneous Caspase-3/7 Assay in K562 cells; assay type: cell-based, human; details: compound at 5 × IC50 (staurosporine 1 µM), 18 h, 1% DMSO normalized to 1.0
Experimental: We have measured the activity of caspases 3 and 7 (caspase 3/7), which are markers of programmed cell death. […] The activity of caspase 3/7 was measured using pro-fluorescent peptide substrate.
20 × 10^3 K562 cells were seeded on each well of 96-well plate in RPMI 1640 medium supplemented with 10% fetal calf serum and antibiotics. Cells were grown for 24 h at 37 °C and 5% CO2. The test compounds were dissolved in DMSO and added to the cell culture. The concentration of tested benzo[b]furans in cell culture was 5 × IC50.
Cells treated with 1% DMSO served as a negative control, while cells incubated with staurosporine (a strong inducer of apoptosis) were used as a positive control. Cells were exposed to test compounds for 18 h at 37 °C and 5% CO2. Subsequently, Apo-ONE® Homogeneous Caspase-3/7 Assay (Promega, Madison, WI, USA) measured the activity of caspase 3 and 7, according to the manufacturer’s instructions. Briefly, the cells were lysed and incubated for 1.5 h with profluorescent substrate for caspase 3 and 7. Next, fluorescence was read at an excitation wavelength of 485 nm and emission of 520 nm with FLUOStar Omega plate reader (BMG-Labtech, Ortenberg, Germany).
Figure 5 Activity of caspase 3 and 7 in K562 cells treated with the test benzofurans 1c, 1e, 2d, 3d, or staurosporine for 18 h. Apoptosis was determined by Apo-ONE® Homogeneous Caspase-3/7 Assay (Promega, Madison, WI, USA). Abbreviations: DMSO—K562 cells treated with 1% DMSO. The caspase activation level in cells exposed to 1% DMSO was normalized to 1.0. Mean values +/− SD are shown.

[4] = system: plasmid DNA (pcDNA3.1 HisC); test: Digestion of plasmid DNA with BamHI restriction nuclease; assay type: biochemical; details: 100 µM, overnight 37 °C, then BamHI 3 h; agarose gel
Source text: We hypothesized that a possible explanation of observed cytotoxicity might be due to an interaction of test benzofurans with genomic DNA (e.g., by intercalation). To verify this hypothesis, we investigated whether the test benzofurans have any effect on digestion of a plasmid DNA (pcDNA3.1 HisC) with endonuclease BamH1. pcDNA3.1 HisC contains a unique BamH1 restriction site which allows for plasmid linearization. Plasmid DNA exists in linear, superhelical, and circular forms that differ in electrophoretic mobility (Figure 6 lane 1). Plasmid DNA was converted to a linear form upon digestion with BamH1 (lane 2). […] In the presence of test compounds, pcDNA3.1 HisC was partially digested with Bam H1 restriction enzyme (Figure 6 lanes 4–7). Most of the plasmid DNA was converted to a linear form, however there is a circular form still present.
0.5 μg of plasmid DNA (pcDNAHisC, total length 5.5 kbp) containing a unique BamHI restriction site was dissolved in a 1× BamHI reaction buffer and then incubated overnight at 37 °C with the test compounds or daunorubicin, a strong intercalating agent, which was used as a positive control. The concentration of the test compounds and daunorubicin samples was 100 µM. In the next step, the reaction mixtures were digested with BamHI restriction endonuclease (2 U/μL) for 3 h at 37 °C. The total reaction volume was 10 μL. Products of the reaction were subjected to the 1% agarose gel electrophoresis in TBE buffer. The gel was stained with ethidium bromide and DNA fragments were visualized under a UV lamp (GBox, Syngene, Cambridge, UK).
Figure 6 Digestion of pcDNA3.1HisC (total length 5.5kbp) with BamH1 endonuclease. M—marker DNA; 1—not digested plasmid DNA; 2—plasmid DNA digested with BamH1 (DNA present in linear form); 3—plasmid DNA + daunorubicin + BamH1; 4—plasmid DNA + 1c + BamH1; 5—plasmid DNA + 2d + BamH1; 6—plasmid DNA + 1e + BamH1; and, 7—plasmid DNA + 3d + BamH1.

SMILES: COC(=O)c1oc2c(C(C)=O)c(OC)c(OC)cc2c1CBr [Compound 1c, Methyl 7-acetyl-3-(bromomethyl)-5,6-dimethoxybenzofuran-2-carboxylate]
IC50 [1]: 50 µM
reduction of viability of HeLa cells [1]: more than 50%
IC50 (K562 (leukemia) cells): 25 µM
IC50 (K562 (leukemia) cells; Homo sapiens, K562, 48 h): < 50 µM
reduction of viability of K562 cells (K562 (leukemia) cells): more than 50%
IC50 (MOLT-4 (leukemia) cells): 180 µM
reduction of viability of MOLT-4 cells (MOLT-4 (leukemia) cells): more than 50%
IC50 [2]: 30 µM
cytotoxicity against human normal endothelial cells [2]: cytotoxic
increase in the activity of caspase 3/7 [3]: about two-fold
inhibition of digestion of plasmid DNA with BamH1 / interaction with DNA [4]: to some extent, interact with DNA

SMILES: COc1cc2c(C)c(Br)oc2c(C(=O)CBr)c1OC [Compound 1e, 2-Bromo-1-(2-bromo-5,6-dimethoxy-3-methylbenzofuran-7-yl)ethanone]
IC50 [1]: 28 µM
reduction of viability of HeLa cells [1]: more than 50%
IC50 (K562 (leukemia) cells): 41 µM
IC50 (K562 (leukemia) cells; Homo sapiens, K562, 48 h): < 50 µM
reduction of viability of K562 cells (K562 (leukemia) cells): more than 50%
IC50 (MOLT-4 (leukemia) cells): 70 µM
reduction of viability of MOLT-4 cells (MOLT-4 (leukemia) cells): more than 50%
IC50 [2]: 30 µM
cytotoxicity against human normal endothelial cells [2]: cytotoxic
increase in the activity of caspase 3/7 [3]: five-fold
inhibition of digestion of plasmid DNA with BamH1 / interaction with DNA [4]: to some extent, interact with DNA

SMILES: CC(=O)c1cc2oc(C)c(C(N)=O)c2cc1O [Compound 2a, 6-Acetyl-5-hydroxy-2-methylbenzofuran-3-carboxamide]
cytotoxic properties toward cancer cell lines (cancer cell lines): did not show the cytotoxic properties; also recorded: loss of cytotoxic properties

SMILES: CC(=O)c1cc2oc(C)c(C(N)=O)c2c(Br)c1O [Compound 2b, 6-Acetyl-4-bromo-5-hydroxy-2-methylbenzofuran-3-carboxamide]
cytotoxic properties toward cancer cell lines (cancer cell lines): loss of cytotoxic properties

SMILES: CC(=O)c1cc2oc(C)c(C(=O)O)c2c(Br)c1O [Compound 2e, 6-Acetyl-4-bromo-5-hydroxy-2-methylbenzofuran-3-carboxylic acid]
melting point: 196 to 197 °C

SMILES: COC(=O)c1c(CBr)oc2cc(C(C)=O)c(OC)cc12 [Compound 3d, Methyl 6-acetyl-2-(bromomethyl)-5-methoxybenzofuran-3-carboxylate]
IC50 [1]: 35 µM
reduction of viability of HeLa cells [1]: more than 50%
IC50 (K562 (leukemia) cells): 28 µM
IC50 (K562 (leukemia) cells; Homo sapiens, K562, 48 h): < 50 µM
reduction of viability of K562 cells (K562 (leukemia) cells): more than 50%
IC50 (MOLT-4 (leukemia) cells): 55 µM
reduction of viability of MOLT-4 cells (MOLT-4 (leukemia) cells): more than 50%
IC50 [2]: 6 µM
cytotoxicity against human normal endothelial cells [2]: cytotoxic
increase in the activity of caspase 3/7 [3]: minimal, if any
decrease of cytotoxicity against human cancer cells compared to the lead compounds VIII-X (cancer cell lines; compared to lead compounds VIII-X): 5–10 folds

SMILES: COc1cccc2c1C(=O)c1c(O)c3c(c(O)c1C2=O)C[C@@](O)(C(C)=O)C[C@@H]3O[C@H]1C[C@H](N)[C@H](O)[C@H](C)O1 [Daunorubicin, reference compound]
inhibition of digestion of plasmid DNA with BamH1 / interaction with DNA [4]: completely inhibited

SMILES: CN[C@@H]1C[C@H]2O[C@@](C)([C@@H]1OC)n1c3ccccc3c3c4c(c5c6ccccc6n2c5c31)C(=O)NC4 [staurosporine, reference compound]
increase in the activity of caspase 3/7 [3]: significantly increased

Further lines, with some results ahead:

melting point: 212 to 214 °C
SMILES: COc1cc2c(C)c(C(=O)O)oc2c(C(C)=O)c1OC [Compound 1, 7-Acetyl-5,6-dimethoxy-3-methylbenzofuran-2-carboxylic acid]

melting point: 203 to 205 °C
SMILES: COc1cc2c(C)c(C(N)=O)oc2c(C(C)=O)c1OC [Compound 1a, 7-Acetyl-5,6-dimethoxy-3-methylbenzofuran-2-carboxamide]
cytotoxic properties toward cancer cell lines (cancer cell lines): did not show the cytotoxic properties; also recorded: loss of cytotoxic properties

melting point: 98 to 100 °C
SMILES: COC(=O)c1oc2c(C(C)=O)c(OC)c(OC)cc2c1C [Compound 1b, Methyl 7-acetyl-5,6-dimethoxy-3-methyl-1-benzofuran-2-carboxylate]

melting point: 94 to 95 °C
SMILES: COc1cc2c(C)c(Br)oc2c(C(C)=O)c1OC [Compound 1d, 1-(2-Bromo-5,6-dimethoxy-3-methylbenzofuran-7-yl)ethanone]

melting point: 170 to 172 °C
SMILES: COC(=O)c1c(C)oc2cc(C(O)C(Br)Br)c(OC)cc12 (stereo not shown) [Compound 3a, Methyl 6-(2,2-dibromo-1-hydroxyethyl)-5-methoxy-2-methylbenzofuran-3-carboxylate]
IC50 [1]: 80 µM
reduction of viability of HeLa cells [1]: more than 50%
IC50 (K562 (leukemia) cells; Homo sapiens, K562, 48 h): 85 µM
reduction of viability of K562 cells (K562 (leukemia) cells): more than 50%
IC50 (MOLT-4 (leukemia) cells): 85 µM
reduction of viability of MOLT-4 cells (MOLT-4 (leukemia) cells): more than 50%
IC50 [2]: 67 µM
cytotoxicity against human normal endothelial cells [2]: cytotoxic

melting point: 249 to 250 °C
SMILES: COc1cc2c(C(=O)O)c(C)oc2cc1C(C)=O [Compound 3b, 6-Acetyl-5-Methoxy-2-Methylbenzofuran-3-Carboxylic Acid]

melting point: 223 to 224 °C
SMILES: COc1cc2c(C(N)=O)c(C)oc2cc1C(C)=O [Compound 3c, 6-Acetyl-5-methoxy-2-methylbenzofuran-3-carboxamide]
cytotoxic properties toward cancer cell lines (cancer cell lines): did not show the cytotoxic properties; also recorded: loss of cytotoxic properties

From article PMC6514909, “Synthesis of New Derivatives of Benzofuran as Potential Anticancer Agents” (Molecules, 2019)
